Laboratory results as given in US8343458B2, “Probes for in vivo targeting of active cysteine proteases” (The Board of Trustees of the Leland Stanford Junior …, priority 2008, dated 2013).
Where “and” joins values, the source holds several entries; their conditions need not be identical. Equal values may be shown once.

Assays:
[1] = tested on: MDA-MB-435 tumor; test: MicroPET imaging of MDA-MB-435 tumor-bearing mice; type: in vivo, mouse; conditions: MDA-MB-435 tumor, 1, 4 and 28 hours post injection
Excerpt: FIG. 3 is a composite photograph showing mouse uptake of labeled probe, i.e., a series of photographs of imaged mice. For purposes of reproduction, the image is converted to black and white and reversed. Lightest to darkest is a range between 0% ID (injected dose)/g and 1% ID/g. […] Arrows indicate location of tumors.
We performed micro PET imaging of mice bearing the MDA-MB-435 and C2C12/Ras tumors. The static microPET images (5 or 10-min scan, three tumor bearing mice were used for each study) of ^64Cu-Z-FK(DOTA)-AOMK are illustrated in coronal images of the subcutaneously implanted tumor-bearing mice (FIG. 3). […] The tumor, indicated by the arrow, is not clearly illuminated.
PET imaging of tumor-bearing mice is performed on a microPET R4 rodent model scanner (Concorde Microsystems Inc, Knoxyille, Tenn.). The mice bearing C2C12/Ras and MDA-MB-435 tumors were injected with 5.55 MBq (150 μCi) of ^64Cu AOMK probe via the tail vein. At different times p.i., the mice were anesthetized with 2% isoflurane, and placed in the prone position and near the center of the field of view of microPET. The 5 or 10-min static scans were obtained and the images were reconstructed by a two-dimensional ordered subsets expectation maximum (OSEM) algorithm.

[2] = tested on: C2C12/Ras tumors; test: Biodistribution in nude mice bearing subcutaneous C2C12/Ras tumors; type: in vivo, mouse; conditions: for Biodistribution: Blood / Biodistribution: Bone / Biodistribution: Brain / Biodistribution: Heart / Biodistribution: Intestines / Biodistribution: Kidney / Biodistribution: Liver / Biodistribution: Lung / Biodistribution: Muscle / Biodistribution: Pancreas / Biodistribution: Spleen / Biodistribution: Stomach / Biodistribution: Tumor / Tumor/Blood ratio / Tumor/Muscle ratio: C2C12/Ras tumor mice, i.v. 740 kBq
Method: All animal studies were carried out in compliance with Federal and local institutional rules for the conduct of animal experimentation. Female athymic nude mice (nu/nu) were obtained from Charles River Laboratories (Boston, Mass.) at 7-8 weeks old and kept under sterile conditions. The nude mice were inoculated subcutaneously in the right shoulder with 2×10^6 cultured C2C12/Ras cells or 5×10^6 MDA-MB-435 cells. When the tumors reach 0.5-0.8 cm in diameter, the tumor bearing mice were subjected to in vivo biodistribution studies. For biodistribution studies, the mice bearing C2C12/Ras or MDA-MB-435 tumor xenografts (n=3 for each group) were injected with 740 KBq (20 μCi) of ^64Cu labeled tracer through the tail vein and sacrificed at different time points post injection (p.i.). Tumor and normal tissues of interest were removed and weighed, and their radioactivity was measured in a gamma-counter. The radioactivity uptake in the tumor and normal tissues was expressed as a percentage of the injected radioactive dose per gram of tissue (% ID/g).
We next examined the overall biodistribution of ^64Cu-Z-FK(DOTA)-AOMK using athymic nude mice carrying subcutaneously grafted C2C12/Ras and MDA-MB-435 tumors. […] Importantly, we observed rapid accumulation of radioactivity in the C2C12/Ras tumors expressing high levels of cysteine cathepsins (0.35±0.13% ID/g at 0.5 h p.i.). This activity remained in the tumors resulting in an uptake of 0.27±0.05% ID/g at 24 h p.i. For the MDA-MB-435 tumors with lower cysteine cathepsin expression, tumor uptake was approximately 2 fold lower at each time point relative to the C2C12/Ras tumors (P<0.05). […] The highest radioactivity was found in the liver due to high endogenous expression of various cysteine cathepsins. Moderate renal accumulation was also observed at all times in both tumor models.
Data are expressed as the percentage administered activity (injected dose) per gram of tissue (% ID/g) after intravenous injection of 740 kBq (20 μCi) of ^64Cu-Z-FK(DOTA)-AOMK at 0.5, 2, and 24 h pi (n=3). Significant lower tumor uptake and tumor/blood, tumor/muscle ratio in MDA-MB-435 breast cancer (P<0.05) were observed.

Cc1cccc(C)c1C(=O)OCC(=O)[C@H](CCCCNC(=O)CN1CCN(CC(=O)[O-])CCN(CC(=O)O)CCN(CC(=O)[O-])CC1)NC(=O)[C@H](Cc1ccccc1)NC(=O)OCc1ccccc1.[64Cu+2] [^64Cu-Z-FK(DOTA)-AOMK]
MicroPET tumor visualization / contrast [1]: low tumor uptake and poor tumor to normal tissue contrast | Biodistribution: Blood ([2]; 0.5 h p.i.): 0.24 ± 0.07 % ID/g | Biodistribution: Bone ([2]; 0.5 h p.i.): 0.09 ± 0.02 % ID/g | Biodistribution: Brain ([2]; 0.5 h p.i.): 0.04 ± 0.03 % ID/g | Biodistribution: Heart ([2]; 0.5 h p.i.): 0.25 ± 0.02 % ID/g | Biodistribution: Intestines ([2]; 0.5 h p.i.): 1.84 ± 0.57 % ID/g | Biodistribution: Kidney ([2]; 0.5 h p.i.): 0.74 ± 0.29 % ID/g | Biodistribution: Liver ([2]; 0.5 h p.i.): 3.71 ± 1.04 % ID/g | Biodistribution: Lung ([2]; 0.5 h p.i.): 0.50 ± 0.17 % ID/g | Biodistribution: Muscle ([2]; 0.5 h p.i.): 0.06 ± 0.01 % ID/g | Biodistribution: Pancreas ([2]; 0.5 h p.i.): 0.25 ± 0.22 % ID/g | Biodistribution: Spleen ([2]; 0.5 h p.i.): 0.35 ± 0.24 % ID/g | Biodistribution: Stomach ([2]; 0.5 h p.i.): 0.63 ± 0.69 % ID/g | Biodistribution: Tumor ([2]; 0.5 h p.i.): 0.35±0.13 % ID/g | Tumor/Blood ratio ([2]; 0.5 h p.i.): 1.41 ± 0.32 | Tumor/Muscle ratio ([2]; 0.5 h p.i.): 5.24 ± 1.35 | Biodistribution: Blood ([2]; 2 h p.i.): 0.24 ± 0.03 % ID/g | Biodistribution: Bone ([2]; 2 h p.i.): 0.10 ± 0.01 % ID/g | Biodistribution: Brain ([2]; 2 h p.i.): 0.02 ± 0.00 % ID/g | Biodistribution: Heart ([2]; 2 h p.i.): 0.30 ± 0.08 % ID/g | Biodistribution: Intestines ([2]; 2 h p.i.): 1.38 ± 0.54 % ID/g | Biodistribution: Kidney ([2]; 2 h p.i.): 0.67 ± 0.19 % ID/g | Biodistribution: Liver ([2]; 2 h p.i.): 3.59 ± 1.01 % ID/g | Biodistribution: Lung ([2]; 2 h p.i.): 0.59 ± 0.22 % ID/g | Biodistribution: Muscle ([2]; 2 h p.i.): 0.05 ± 0.01 % ID/g | Biodistribution: Pancreas ([2]; 2 h p.i.): 0.18 ± 0.08 % ID/g | Biodistribution: Spleen ([2]; 2 h p.i.): 0.24 ± 0.04 % ID/g | Biodistribution: Stomach ([2]; 2 h p.i.): 0.32 ± 0.06 % ID/g | Biodistribution: Tumor ([2]; 2 h p.i.): 0.30 ± 0.03 % ID/g | Tumor/Blood ratio ([2]; 2 h p.i.): 1.25 and 1.25 ± 0.21 | Tumor/Muscle ratio ([2]; 2 h p.i.): 5.64 and 5.64 ± 0.98 | Biodistribution: Blood ([2]; 24 h p.i.): 0.28 ± 0.10 % ID/g | Biodistribution: Bone ([2]; 24 h p.i.): 0.14 ± 0.10 % ID/g | Biodistribution: Brain ([2]; 24 h p.i.): 0.05 ± 0.01 % ID/g | Biodistribution: Heart ([2]; 24 h p.i.): 0.46 ± 0.07 % ID/g | Biodistribution: Intestines ([2]; 24 h p.i.): 0.46 ± 0.04 % ID/g | Biodistribution: Kidney ([2]; 24 h p.i.): 0.72 ± 0.05 % ID/g | Biodistribution: Liver ([2]; 24 h p.i.): 1.86 ± 0.57 % ID/g | Biodistribution: Lung ([2]; 24 h p.i.): 0.65 ± 0.15 % ID/g | Biodistribution: Muscle ([2]; 24 h p.i.): 0.06 ± 0.02 % ID/g | Biodistribution: Pancreas ([2]; 24 h p.i.): 0.21 ± 0.06 % ID/g | Biodistribution: Spleen ([2]; 24 h p.i.): 0.42 ± 0.06 % ID/g | Biodistribution: Stomach ([2]; 24 h p.i.): 0.27 ± 0.11 % ID/g | Biodistribution: Tumor ([2]; 24 h p.i.): 0.27±0.05 % ID/g | Tumor/Blood ratio ([2]; 24 h p.i.): 0.99 ± 0.24 | Tumor/Muscle ratio ([2]; 24 h p.i.): 4.07 ± 1.13 | Blood clearance ([2]; both tumor models, nude mice, i.v.): rapid clearance in blood
